The results in this text go back to patent US9458089B2, “Phenoxy alkyl diethanolamine and diisopropanolamine compounds for delivering active agents” (EMISPHERE TECHNOLOGIES, INC., priority 2012, dated 2016).

SMILES strings stand for the structures. Structures can show the parent of a compound that is named as a salt.

By melting point is commonly meant the temperature, or range, at which the solid turns liquid.

Test system in one series: not given
Test: not given
Settings: not given
In the case of `Cc1ccc(F)c(OCCCCN(CCO)CCO)c1` (as salt: hydrochloride) [Compound 2-FPBD, 4-(2-fluoro-5-methylphenoxy)butyldiethanolamine], the melting point lay within 83 to 86 °C.

`OCCN(CCO)CCCCCCOc1ccccc1O` (as salt: hydrochloride) [Compound 2-HPHD, 6-(2-hydroxyphenoxyl)hexyldiethanolamine] yielded a melting point of 95 to 97 °C.

The next series deals with T1, hERG channels (Homo sapiens, UniProt Q12809).
T1 construct: expressed in transfected cells
T1 sequence (Q12809 whole entry): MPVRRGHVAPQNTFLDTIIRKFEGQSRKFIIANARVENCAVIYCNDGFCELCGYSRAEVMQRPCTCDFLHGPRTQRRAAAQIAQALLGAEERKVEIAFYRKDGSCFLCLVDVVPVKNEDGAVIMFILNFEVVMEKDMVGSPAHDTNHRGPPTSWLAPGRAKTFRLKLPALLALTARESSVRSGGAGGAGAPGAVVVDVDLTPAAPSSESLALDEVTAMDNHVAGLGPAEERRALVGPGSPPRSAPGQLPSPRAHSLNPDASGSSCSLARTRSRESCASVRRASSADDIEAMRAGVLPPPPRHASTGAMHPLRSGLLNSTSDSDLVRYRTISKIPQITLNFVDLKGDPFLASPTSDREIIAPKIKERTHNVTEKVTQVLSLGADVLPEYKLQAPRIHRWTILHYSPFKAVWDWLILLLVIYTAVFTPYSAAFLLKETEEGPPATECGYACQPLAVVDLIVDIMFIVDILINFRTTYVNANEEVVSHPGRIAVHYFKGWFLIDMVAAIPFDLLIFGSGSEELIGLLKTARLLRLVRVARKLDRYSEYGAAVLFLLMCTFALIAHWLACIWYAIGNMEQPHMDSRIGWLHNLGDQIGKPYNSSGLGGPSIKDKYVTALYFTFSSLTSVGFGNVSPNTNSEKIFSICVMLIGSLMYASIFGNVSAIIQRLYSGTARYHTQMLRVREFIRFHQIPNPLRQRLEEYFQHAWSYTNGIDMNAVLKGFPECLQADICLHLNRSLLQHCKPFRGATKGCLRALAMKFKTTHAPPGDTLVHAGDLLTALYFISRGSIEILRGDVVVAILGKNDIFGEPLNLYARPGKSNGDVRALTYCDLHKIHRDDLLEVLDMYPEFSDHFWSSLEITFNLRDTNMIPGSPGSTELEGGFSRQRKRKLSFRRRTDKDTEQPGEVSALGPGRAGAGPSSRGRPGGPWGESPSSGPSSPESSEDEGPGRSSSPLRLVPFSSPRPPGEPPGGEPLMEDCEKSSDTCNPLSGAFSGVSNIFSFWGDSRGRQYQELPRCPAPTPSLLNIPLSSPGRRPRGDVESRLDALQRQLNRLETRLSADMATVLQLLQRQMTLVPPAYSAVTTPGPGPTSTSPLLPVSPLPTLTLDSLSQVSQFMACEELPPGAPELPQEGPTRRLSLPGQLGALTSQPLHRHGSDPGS
The series can be described thus: hERG patch clamp on clone hERG channels in mammalian cells. The class given is cell-based. As to conditions: test article 1 μm, cisapride positive control, read-out: Experimental hERG Activity. As for the experimental part: hERG activity was measured using a patch clamp method on clone hERG channels in mammalian cells. The concentration of test articles was 1 μm and a comparison was made to both a positive (cisapride) and negative (vehicle) control.
For the compound `Cc1ccc(C)c(OCCCCCCN(CCO)CCO)c1`, the IC50 was less than 2000 nM.

For `Cc1ccc(C)c(OCCCCCCCN2CCOCC2)c1`, the IC50 is less than 2000 nM.

With `Cc1ccc(C)c(OCCCCCCCN(CCO)CCO)c1`, the IC50 is less than 2000 nM.

As to `OCCN(CCO)CCCCCCCCOc1ccccc1O`, the IC50 was 2000 to 5000 nM.
